The values below come from patent US20260041620A1, “NOVEL AMINO ACID BASED SALTS, COMPOSITIONS AND METHODS FOR TREATING SKIN AND IMPROVING SKIN REJUVENATION AND LONGEVITY” (Sytheon Ltd, priority 2023, published 2026).

One experiment concerns Prolidase (PEPD). Briefly: Prolidase Assay (ELISA). It is filed as cell-based. The conditions noted are these: for Prolidase: untreated 74 ± 3. Here is the method:
A series of standards was prepared and 50 μl aliquots of the standards and the test samples identified in Table 6 were added to wells of a prolidase ELISA plate, followed by the addition of 100 μl […] conjugated anti-prolidase antibody. The plate was then incubated at 37° C. for 1 hour, Following incubation, the ELISA plate was washed and 100 μl of substrate solution was added to each well and the well-plate incubated for 10-15 minutes at room temperature to allow the color generation reaction to occur. At the end of the color generation reaction, 50 μl of stop solution (1 N sulfuric acid) was added to each well and the plates read at 460 nm using a plate reader.
To quantify the amount of each substance present, a standard curve was generated using known concentrations of each substance. A regression analysis was performed to establish the line that best fit those data points. Absorbance values for the test materials and untreated samples were used to estimate the amount of each substance present in each sample. Treatment means were compared using ANOVA, with an […] per treatment. Statistical significance was set at p≤0.05.
On the technique in general: ELISA stands for enzyme-linked immunosorbent assay.

Another experiment has as its system NFκB. Description: NF-κB luminance reporter assay, TNFα activated. In kind it is cell-based, Murine. The source says:
NFκB expression was quantified from the luminance signals released from cells treated with the test products and the control (untreated).
In general terms: Reporter assays use an easily measured gene product as a stand-in for the process of interest.

The subject of experiment [1] is EpiDermFT (Mattek full thickness) dermal substitutes. The conditions noted are these: versus control.
Method: The experiments were performed using EpiDermFT (Mattek full thickness) dermal substitutes. Sequencing data was generated by Azenta Life Sciences (HiSeq 2×150 bp) and analyses performed using raw FastQ files provided by Azenta.
In experiment [2] the test system is normal human adipose-derived mesenchymal stem cells (MSC). Briefly: Reprograming of aged mesenchymal stem cells, gene expression by qPCR. In kind it is cell-based. Conditions: 10 ug/ml, 72 hours, starved MSC. The source says:
MSCs are a multipotent type of stem cell that, directly or indirectly, have a significant impact on a number of physiological processes, including the proliferation and differentiation of epidermal cells and regeneration of the epidermal layer; however, as they age they show lower stemness and regenerative potential. MSCs are shown to enhance wound healing, to restore the barrier function of the skin, and to address skin aging, particularly aging due to sun exposure as well as natural senescence, including reducing the manifestation and/or degree of wrinkles. An evaluation was conducted to ascertain the effect, if any, of zinc di-(di-n-butyryl lysinate) (“ZDBL”) on MSCs. Specifically, normal human adipose-derived mesenchymal stem cells (MSC) (ATCC, Manassas, VA—PCS-500-011) were seeded in mesenchymal stem cell basal medium (ATCC, Manassas, VA—PCS500-030) supplemented with the MSC growth kit starvation media (ATCC, Manassas, VA—PCS500-040-811S) and cultured at 37° C. in a humidified 5% CO2 atmosphere using an VWR tissue culture incubator, Approximately 24 hours after a portion of the cells was placed in the starvation medium to generate stress, they were exposed to the ZDBL (10 ug/ml) and incubated for 72 hours: the remaining portion was not exposed to the ZDBL. RNA was then extracted for gene expression quantification by qPCR.
(Quantitative PCR measures a nucleic acid by following its amplification.)

A further experiment deals with HDAC1 (Homo sapiens, UniProt Q13547). Conditions: reported, abcam; cited from earlier work.
Chain of HDAC1 (Q13547 whole entry, species assumed): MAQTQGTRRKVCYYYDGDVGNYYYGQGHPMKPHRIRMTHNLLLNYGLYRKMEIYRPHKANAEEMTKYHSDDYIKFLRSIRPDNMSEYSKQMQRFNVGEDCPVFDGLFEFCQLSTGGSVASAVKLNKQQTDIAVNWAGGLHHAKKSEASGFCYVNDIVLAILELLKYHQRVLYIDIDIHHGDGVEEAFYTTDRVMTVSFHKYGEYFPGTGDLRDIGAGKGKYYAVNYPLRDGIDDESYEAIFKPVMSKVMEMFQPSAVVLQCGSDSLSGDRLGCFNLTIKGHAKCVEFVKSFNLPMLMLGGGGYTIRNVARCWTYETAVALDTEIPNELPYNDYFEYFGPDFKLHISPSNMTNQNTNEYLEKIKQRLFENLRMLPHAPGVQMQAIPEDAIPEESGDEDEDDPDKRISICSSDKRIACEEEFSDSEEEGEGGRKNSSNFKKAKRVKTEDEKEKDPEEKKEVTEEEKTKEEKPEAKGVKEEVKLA
Another experiment deals with T1, HDAC7 (Homo sapiens, UniProt Q8WUI4).
T1 sequence (Q8WUI4 1-952): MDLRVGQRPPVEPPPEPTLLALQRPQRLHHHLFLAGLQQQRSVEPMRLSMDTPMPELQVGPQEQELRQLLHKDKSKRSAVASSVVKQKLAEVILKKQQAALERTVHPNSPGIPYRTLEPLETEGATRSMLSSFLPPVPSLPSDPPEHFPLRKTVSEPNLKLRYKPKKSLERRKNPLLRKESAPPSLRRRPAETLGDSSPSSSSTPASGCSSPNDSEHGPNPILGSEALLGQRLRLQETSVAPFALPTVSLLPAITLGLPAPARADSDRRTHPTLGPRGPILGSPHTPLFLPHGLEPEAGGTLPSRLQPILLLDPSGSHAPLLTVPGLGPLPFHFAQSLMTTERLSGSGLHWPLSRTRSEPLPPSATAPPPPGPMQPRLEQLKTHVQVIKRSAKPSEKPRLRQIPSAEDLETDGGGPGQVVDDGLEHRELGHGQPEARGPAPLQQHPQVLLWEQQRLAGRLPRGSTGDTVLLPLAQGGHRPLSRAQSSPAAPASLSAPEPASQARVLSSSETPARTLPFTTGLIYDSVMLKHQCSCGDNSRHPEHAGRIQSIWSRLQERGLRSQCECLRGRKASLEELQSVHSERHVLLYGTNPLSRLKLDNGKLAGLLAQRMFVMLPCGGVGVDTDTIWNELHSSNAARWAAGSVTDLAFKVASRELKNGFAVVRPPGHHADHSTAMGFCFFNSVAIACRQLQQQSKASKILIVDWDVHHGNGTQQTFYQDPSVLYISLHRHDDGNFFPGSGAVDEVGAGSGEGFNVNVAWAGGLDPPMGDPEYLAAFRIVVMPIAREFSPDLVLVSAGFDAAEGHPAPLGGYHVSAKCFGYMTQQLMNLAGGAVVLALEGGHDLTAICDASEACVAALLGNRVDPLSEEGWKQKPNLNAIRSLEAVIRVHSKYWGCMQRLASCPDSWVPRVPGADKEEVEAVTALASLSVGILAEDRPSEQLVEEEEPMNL
The conditions noted are these: reported, abcam; cited from earlier work.

The target in the next experiment is HDAC2 (Homo sapiens, UniProt Q92769). The conditions noted are these: reported, abcam; cited from earlier work.
Chain of HDAC2 (Q92769 whole entry): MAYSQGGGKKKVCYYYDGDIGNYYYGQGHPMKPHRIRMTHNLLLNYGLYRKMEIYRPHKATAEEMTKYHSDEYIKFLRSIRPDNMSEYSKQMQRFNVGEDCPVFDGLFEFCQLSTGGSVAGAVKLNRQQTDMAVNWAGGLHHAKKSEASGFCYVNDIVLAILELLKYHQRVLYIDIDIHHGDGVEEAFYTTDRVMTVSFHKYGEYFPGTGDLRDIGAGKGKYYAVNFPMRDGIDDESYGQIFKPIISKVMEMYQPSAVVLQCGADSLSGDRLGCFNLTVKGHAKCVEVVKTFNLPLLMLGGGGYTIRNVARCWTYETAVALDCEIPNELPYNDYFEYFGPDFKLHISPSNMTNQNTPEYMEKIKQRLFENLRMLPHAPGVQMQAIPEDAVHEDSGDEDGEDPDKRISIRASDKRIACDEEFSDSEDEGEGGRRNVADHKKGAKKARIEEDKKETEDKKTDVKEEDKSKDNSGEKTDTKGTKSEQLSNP

Marks after values point to notes of the source that are not given here.

Turning to `CCCC(=O)NCCCC[C@H](NC(=O)CCC)C(=O)[O-].CCCC(=O)NCCCC[C@H](NC(=O)CCC)C(=O)[O-].[Zn+2]` [Zn di-(di-n-butyryl lysinate), Zinc di-(di-n-butyryl lysinate)], in the experiment on Prolidase (PEPD) (10 μg/ml), the Prolidase came out at 66 ± 4 ng/mL. In the experiment on Prolidase (PEPD) (20 μg/ml), this compound returned a Prolidase of 104 ± 5 ng/mL. The same compound came in with a Prolidase with Prolidase (PEPD) (30 μg/ml) of 115 ± 8 ng/mL. In the experiment with Prolidase (PEPD) (60 μg/ml), the “increase of prolidase vs control” value is reported as 50% and the Prolidase came to 145 ± 5 ng/mL. Moreover, the “IC50 in inhibiting NFκB” value in the experiment with NFκB (C2C12 reporter cells, TNFα as activator) is 70.4 µg/mL. Further, the “fold more effective than Na butyrate in inhibiting NFκB” value with NFκB (ratio of IC50 values) is reported as “about 110 fold”. In experiment [1], the “activity of S100 calcium binding protein P (S100P)” value was “strongly increased”, the “activity of late cornified envelope 3D (LCE3D)” value is reported as “strongly increased”, the “activity of late cornified envelope 3E (LCE3E)” value was “strongly increased” and the “activity of small protein reach repeat (SPRR28)” value was “strongly increased”. Further, in experiment [1], the “expression of FABP3” value is given as “repressed”, the “expression of early differentiation marker gene DSC1” value is “increasing the expression”, the “expression of early differentiation marker gene KRT1” value is on record as “increasing the expression” and the “expression of early differentiation marker gene KRT10” value is given as “increasing the expression”. In addition, in experiment [1], the “expression of late differentiation marker gene FLG” value was “increased expression”, the “expression of late differentiation marker gene IVL” value is listed as “increased expression”, the “expression of late differentiation marker gene LOR” value is given as “increased expression” and the “expression of late differentiation marker gene SPINK5” value is recorded as “increased expression”. Also, the “expression of late differentiation marker gene TGM1” value in experiment [1] is “increased expression”. In addition, in experiment [2], the “BMP7 gene expression, Fold Change versus control” value is listed as 1.8* fold; the “DACT1 gene expression, Fold Change versus control” value is reported as 2.2** fold; the “DLK1 gene expression, Fold Change versus control” value is given as 2.4** fold; the “DPP4 gene expression, Fold Change versus control” value is recorded as −1.8** fold. Further, in experiment [2], the “OCT4 gene expression, Fold Change versus control” value is given as 1.7** fold; the “SOX2 gene expression, Fold Change versus control” value was 2.4* fold; the “SQSTM1/p62 gene expression, Fold Change versus control” value was 1.7* fold; the “TP63 gene expression, Fold Change versus control” value is 3.0** fold. Moreover, the “WNT2 gene expression, Fold Change versus control” value in experiment [2] was 1.9** fold.

Turning to `CCCC(=O)NCCCCC(NC(=O)CCC)C(=O)[O-].CCCC(=O)NCCCCC(NC(=O)CCC)C(=O)[O-].[Ca+2]` (stereo not shown) [Ca di-(di-n-butyryl lysinate), calcium di-(di-n-butyryl lysinate)], in experiment [1], the “activity of late cornified envelop (LCE2D)” value is “strongly increased”, the “activity of late cornified envelope (LCE3A)” value is listed as “strongly increased”, the “expression of FABP3” value was “repressed” and the “expression of late differentiation marker gene FLG” value was “increased expression”. In experiment [1], the “expression of late differentiation marker gene IVL” value is recorded as “increased expression”, the “expression of late differentiation marker gene LOR” value is “increased expression”, the “expression of late differentiation marker gene SPINK5” value is “increased expression” and the “expression of late differentiation marker gene TGM1” value was “increased expression”.

In general, IC50 refers to the concentration at which inhibition is half-maximal. With `CCCC(=O)[O-].[Na+]` [Sodium butyrate, reference compound], the IC50 at HDAC1 is 300 µM; with NFκB (Mus musculus, C2C12 reporter cells, TNFα as activator, read-out: IC50 in inhibiting NFκB) it was 7700 µg/mL; on HDAC7, 300 µM; at HDAC2, 400 µM. In addition, the Prolidase was 54 ± 3 ng/mL in the experiment on Prolidase (PEPD) (10 μg/ml), 47 ± 6 ng/mL in the experiment on Prolidase (PEPD) (20 μg/ml), 37 ± 5 ng/mL in the experiment on Prolidase (PEPD) (30 μg/ml) and 33 ± 5 ng/mL with Prolidase (PEPD) (60 μg/ml). Moreover, the “decrease of prolidase vs control” value in the experiment on Prolidase (PEPD) (60 μg/ml) was determined as 50%.
